Reference: paper PMC3914206

Columns and labels:
Assay type in all cases: binding
panel of 442 kinases [1] = target: T1, panel of 442 kinases (Homo sapiens, UniProt Q9BYT3); settings: kinase STK33; compound concentration 10 µM
T1 construct: purchased KINOMEscan
Description: (§1) We assessed the selectivity of members of this scaffold using the KINOMEscan methodology across a near comprehensive panel of 442 kinases [[18,27]].

panel of 442 kinases [2] = target: T2, panel of 442 kinases (Homo sapiens, UniProt O94804); settings: Compound Concentration 10 µM
T2 construct: purchased KINOMEscan
T2 sequence (O94804 whole entry): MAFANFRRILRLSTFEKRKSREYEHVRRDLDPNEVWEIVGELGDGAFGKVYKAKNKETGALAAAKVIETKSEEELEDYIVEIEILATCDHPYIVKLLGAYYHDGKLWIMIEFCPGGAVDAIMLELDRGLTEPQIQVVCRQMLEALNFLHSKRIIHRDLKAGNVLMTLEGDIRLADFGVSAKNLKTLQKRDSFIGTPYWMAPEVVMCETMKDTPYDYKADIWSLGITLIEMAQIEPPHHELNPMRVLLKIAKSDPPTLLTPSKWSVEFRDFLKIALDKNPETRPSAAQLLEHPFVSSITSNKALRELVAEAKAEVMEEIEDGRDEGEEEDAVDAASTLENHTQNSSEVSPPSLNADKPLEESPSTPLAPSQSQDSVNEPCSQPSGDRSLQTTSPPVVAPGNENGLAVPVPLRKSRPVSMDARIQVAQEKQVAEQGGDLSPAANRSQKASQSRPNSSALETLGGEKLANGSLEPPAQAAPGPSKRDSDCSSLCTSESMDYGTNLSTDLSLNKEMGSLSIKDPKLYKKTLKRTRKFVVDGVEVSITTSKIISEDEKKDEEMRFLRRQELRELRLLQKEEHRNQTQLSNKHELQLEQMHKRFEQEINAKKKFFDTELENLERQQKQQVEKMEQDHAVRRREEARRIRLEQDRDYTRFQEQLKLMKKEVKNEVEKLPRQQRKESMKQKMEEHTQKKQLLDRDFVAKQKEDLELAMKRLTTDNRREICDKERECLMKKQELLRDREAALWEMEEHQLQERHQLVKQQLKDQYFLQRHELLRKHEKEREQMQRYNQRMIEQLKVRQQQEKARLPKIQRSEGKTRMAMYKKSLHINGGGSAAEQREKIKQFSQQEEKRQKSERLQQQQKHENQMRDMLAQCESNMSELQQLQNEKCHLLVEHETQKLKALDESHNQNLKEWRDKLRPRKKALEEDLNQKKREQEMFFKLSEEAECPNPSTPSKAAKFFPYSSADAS
Description: as §1

panel of 442 kinases [3] = target: T3, panel of 442 kinases (Homo sapiens, UniProt Q15831); settings: Compound Concentration 10 µM
T3 construct: purchased KINOMEscan
T3 sequence (Q15831 1-433): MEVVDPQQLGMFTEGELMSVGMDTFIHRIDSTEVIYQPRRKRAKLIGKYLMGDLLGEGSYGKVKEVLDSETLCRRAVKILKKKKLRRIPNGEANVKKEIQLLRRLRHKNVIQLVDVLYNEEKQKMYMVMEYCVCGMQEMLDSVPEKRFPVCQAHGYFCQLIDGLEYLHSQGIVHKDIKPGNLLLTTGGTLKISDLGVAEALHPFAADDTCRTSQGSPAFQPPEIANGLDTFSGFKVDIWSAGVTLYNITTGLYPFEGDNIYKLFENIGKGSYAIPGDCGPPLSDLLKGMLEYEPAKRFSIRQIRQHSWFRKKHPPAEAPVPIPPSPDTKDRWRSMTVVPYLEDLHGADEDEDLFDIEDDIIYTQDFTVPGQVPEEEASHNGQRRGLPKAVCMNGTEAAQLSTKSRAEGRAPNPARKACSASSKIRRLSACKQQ
Description: as §1

T1 sequence (Q9BYT3 whole entry): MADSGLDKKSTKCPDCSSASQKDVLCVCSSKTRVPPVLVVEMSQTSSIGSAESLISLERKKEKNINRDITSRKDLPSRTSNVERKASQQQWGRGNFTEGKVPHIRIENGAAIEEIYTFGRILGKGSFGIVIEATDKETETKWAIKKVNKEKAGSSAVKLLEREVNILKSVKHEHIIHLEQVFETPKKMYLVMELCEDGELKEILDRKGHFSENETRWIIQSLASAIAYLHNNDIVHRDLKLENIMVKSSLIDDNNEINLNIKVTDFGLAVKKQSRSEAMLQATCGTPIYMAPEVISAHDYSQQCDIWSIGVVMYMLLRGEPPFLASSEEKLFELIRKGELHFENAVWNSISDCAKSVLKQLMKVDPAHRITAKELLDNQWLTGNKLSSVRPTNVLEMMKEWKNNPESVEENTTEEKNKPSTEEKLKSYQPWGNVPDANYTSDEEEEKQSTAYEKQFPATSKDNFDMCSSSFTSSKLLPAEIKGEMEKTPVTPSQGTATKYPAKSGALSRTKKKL

SMILES | % Ctrl, STK33 (panel of 442 kinases [1]) [% Ctrl] | KINOMEscan: LOK (panel of 442 kinases [2]) | KINOMEscan: LKB1 (panel of 442 kinases [3])
COc1cc(C(=O)N2CCC(N3CCN(C)CC3)CC2)ccc1Nc1ncc2c(n1)N(C1CCCC1)c1ccccc1C(=O)N2C [Compound 25, 11-cyclopentyl-2-((2-methoxy-4-(4-(4-methylpiperazin-1-yl)piperidine-1-carbonyl)phenyl)amino)-5-methyl-5H-benzo[e]pyrimido[5,4-b][1,4]diazepin-6(11H)-one] | 81 | 100 | 82
CCOc1cc(C(=O)N2CCC(N3CCN(C)CC3)CC2)ccc1Nc1ncc2c(n1)N(C1CCCC1)c1ccccc1C(=O)N2C [Compound 26] | 100 | 100 | 100
COc1cc(C(=O)N2CCC(N3CCN(C)CC3)CC2)ccc1Nc1ncc2c(n1)N1CCc3cccc(c31)C(=O)N2C [Compound 24] | – | 70 | –
COc1cc(C(=O)N2CCC(N3CCN(C)CC3)CC2)ccc1Nc1ncc2c(n1)N(C)c1ccccc1C(=O)N2C [15 (LRRK2-IN-1)] | 10 | 100 | 96
